Source: article PMC3764026, “Adaptive Evolution of Escherichia coli to an α-Peptide/β-Peptoid Peptidomimetic Induces Stable Resistance” (PLoS ONE, 2013)
≈ marks a conversion by molar mass, not a printed value. Where two headings read alike, the source gives them in different places.

How the values were obtained:
[1] = system: peptidomimetic-adapted E. coli isolates; conditions: for Potentiation (ability of plasma to interact synergistically with peptidomimetic 1): MHB vs MHB +25% plasma; for MIC in MHB +25% plasma: MHB with 25% human blood plasma (sodium citrate)
Protocol: (§1) MIC was determined by using the micro-dilution method according to guidelines of the Clinical and Laboratory Standards Institute. Peptidomimetic 1 and erythromycin 1∶2 serial dilutions were prepared from 1024 µg/mL stock solutions to give a final range of 512-0.5 µg/mL in the wells. Ampicillin 1∶2 serial dilutions were prepared from a 256 µg/mL stock solution to give a final range of 128-0.13 µg/mL in the wells. Polymyxin B and gentamicin 1∶2 serial dilutions were prepared from a 64 µg/mL stock solution to give a final range of 32-0.03 µg/mL in the wells.
(§2) The population lineages were tested for their susceptibility towards peptidomimetic 1, polymyxin B, gentamicin and ampicillin. Single-culture isolates selected from these populations were additionally tested against peptidomimetic 1, polymyxin B, erythromycin and the five reference AMPs. To estimate the level of cross-resistance to closely related peptidomimetics, MIC determinations were performed for peptidomimetics 2 and 3 (Figure 1) towards selected isolates. The bacterial suspensions were grown overnight in MHB at 37°C for determination of the population MIC, or individual isolates were grown overnight on non-selective BHI agar at 37°C. […] In all experiments, bacterial cells were suspended in 0.9% saline to give a turbidity of 0.13 at OD546 (approximately 1×10^8 CFU/mL) and diluted in MHB pH 7.4 to a final concentration of 5×10^5 CFU/mL in each well. Polypropylene plates (Nunc 442587) were used to minimize peptide binding, and the incubation time was 18–20 hours at 37°C. […] MIC was found in a minimum of two technical (population MIC) or biological (isolate MIC) replicates as the lowest concentration of the AMP or antibiotic where no visible growth was observed.
(§3) Four isolates, i.e. 2-7, 4-4, 5-6 and 7-3, a representative isolate from four different lineages, were revived from freeze storage. The four isolates were grown in 25–50% blood plasma and in 25–50% heat-inactivated plasma as previously described. Blood plasma was obtained from two different blood donors using sodium citrate as anticoagulant and experiments were performed on at least two independent days. Both donors were fully informed about the study and purpose and a written consent has been received. […] For this the 1∶2 serial dilutions were made in MHB with 50% blood plasma added to give a final concentration of 25% plasma in the wells.

[2] = system: E. coli ATCC 25922; conditions: wild-type E. coli ATCC 25922
Protocol: as §1, §2, §3

[3] = system: E. coli ATCC 25922; test: Growth rate in MHB supplemented with peptidomimetic 1, wild type; assay type: cell-based, Escherichia coli; conditions: E. coli ATCC 25922 exposed to 1/16 or 1/32×wt MIC of peptidomimetic 1; p>0.05
Protocol: To evaluate whether resistance altered the physiology of the isolates, we determined the growth rate of all forty isolates from lineage 2, 4, 5 and 7 as well as of E. coli ATCC 25922 in unsupplemented MHB media. Additionally, we determined the growth rate of the four isolates 2-7, 4-4, 5-6 and 7-3, in MHB supplemented with peptidomimetic 1 at ½×wild type MIC or 1×wild type MIC (i.e. 4 and 8 µg/mL). […] Optical density readings were obtained at 570 nm at 10–12 minute increments on cultures grown at 37°C over 24 hours (unsupplemented MHB) or 72 hours (supplemented MHB) using the automated Bioscreen C system (Labsystems, Helsinki, Finland). Growth rates were found using linear regression on ln(initial CFU/mL) vs. detection time (i.e. the time until a 0.5 unit increase in absorbance was reached) for inoculum sizes ranging from 10^2–10^7 CFU/mL [58]. Data were analysed in GraphPad Prism version 4.03 using One-Way ANOVA followed by Dunnett’s Test to correct for multiple testing. Control groups were E. coli ATCC 25922 (in the absence of peptidomimetic) or E. coli ATCC 25922/isolates grown in unsupplemented media (in the presence of peptidomimetic). Significance levels were in all tests set at p<0.05. All experiments were performed in duplicate on at least two independent days.

CC(=O)N[C@@H](CCCCNC(=N)N)C(=O)N(CCC(=O)N[C@@H](CCCCNC(=N)N)C(=O)N(CCC(=O)N[C@@H](CCCCNC(=N)N)C(=O)N(CCC(=O)N[C@@H](CCCCNC(=N)N)C(=O)N(CCC(=O)N[C@@H](CCCCNC(=N)N)C(=O)N(CCC(=O)N[C@@H](CCCCNC(=N)N)C(=O)N(CCC(N)=O)[C@@H](C)c1ccccc1)[C@@H](C)c1ccccc1)[C@@H](C)c1ccccc1)[C@@H](C)c1ccccc1)[C@@H](C)c1ccccc1)[C@@H](C)c1ccccc1 [peptidomimetic 1]
Potentiation (ability of plasma to interact synergistically with peptidomimetic 1) ([1]; isolate 2–7): Strong
MIC in MHB +25% plasma ([1]; isolate 2–7): 0.25 to 2 µg/mL
Potentiation (ability of plasma to interact synergistically with peptidomimetic 1) ([1]; isolate 4–4): Weak
MIC in MHB +25% plasma ([1]; isolate 4–4): 1 to 4 µg/mL
Potentiation (ability of plasma to interact synergistically with peptidomimetic 1) ([1]; isolate 5–6): Weak
MIC in MHB +25% plasma ([1]; isolate 5–6): 4 to 8 µg/mL
Potentiation (ability of plasma to interact synergistically with peptidomimetic 1) ([1]; isolate 7–3): Strong
MIC in MHB +25% plasma ([1]; isolate 7–3): 1 to 2 µg/mL
Potentiation (ability of plasma to interact synergistically with peptidomimetic 1) ([2]; MHB vs MHB +25% plasma): Weak
MIC in MHB +25% plasma ([2]; MHB with 25% human blood plasma (sodium citrate)): 2 µg/mL (≈ 0.938 µM)
growth rate [3]: reduced growth rate was not seen
